Test results from PubChem BioAssay AID1259407 (Chemical Carcinogenesis Research Information System (CCRIS), 2018).
Active and inactive are the calls of the source. No rule for the calls is given here.

Test system: CCRIS mutagenicity, Ames/micronucleus/aberration tests
Experiment: CCRIS mutagenicity studies
[1] = Test System: AMES SALMONELLA TYPHIMURIUM, Strain/Indicator: TA98, Metabolic Activation: NONE, Method: STANDARD PLATE
[2] = Test System: AMES SALMONELLA TYPHIMURIUM, Strain/Indicator: TA98, Metabolic Activation: RAT, LIVER, S-9, AROCLOR 1254, Method: STANDARD PLATE
[3] = Test System: AMES SALMONELLA TYPHIMURIUM, Strain/Indicator: TA100, Metabolic Activation: NONE, Method: STANDARD PLATE
[4] = Test System: AMES SALMONELLA TYPHIMURIUM, Strain/Indicator: TA100, Metabolic Activation: NONE, Method: PREINCUBATION
[5] = Test System: AMES SALMONELLA TYPHIMURIUM, Strain/Indicator: TA98, Metabolic Activation: NONE, Method: PREINCUBATION
[6] = Test System: AMES SALMONELLA TYPHIMURIUM, Strain/Indicator: TA1535, Metabolic Activation: NONE, Method: PREINCUBATION
[7] = Test System: AMES SALMONELLA TYPHIMURIUM, Strain/Indicator: TA1537, Metabolic Activation: NONE, Method: PREINCUBATION

In the case of Oc1cc2c3ccccc3ccc2c2ccccc12, the mutagenic call [1] is reported as “inactive; negative”, the mutagenic call [2] is reported as “inactive; negative” and the mutagenic call [3] is reported as “inactive; negative”.

With CNP(=O)(NC)NC the mutagenic call (Test System: AMES SALMONELLA TYPHIMURIUM, Strain/Indicator: TA100, Metabolic Activation: NONE, Method: SUSPENSION) was “inactive; negative” and the mutagenic call (Test System: AMES SALMONELLA TYPHIMURIUM, Strain/Indicator: TA100, Metabolic Activation: RAT, LIVER, S-9, AROCLOR 1254, Method: SUSPENSION) was “inactive; negative”.

In the case of CC1(c2ccc(Cl)cc2)CO1 (stereo unspecified), the mutagenic call [4] is reported as “active; positive”.

For CCc1nc(N)nc(N)c1-c1ccc(Cl)cc1, the mutagenic call (End Point: IN VITRO CHROMOSOMAL ABERRATIONS, Test System: HUMAN LYMPHOCYTES, Metabolic Activation: NONE) was “active; positive”, the mutagenic call (End Point: IN VITRO MICRONUCLEUS, Test System: HAMSTER V79 CELLS, Metabolic Activation: NONE) was “inactive; negative” and the mutagenic call (End Point: In vivo chromosomal aberrations, Species: Mouse, Strain/Sex: Swiss/Male, Route: Intraperitoneal) was “active; positive (at highest dose only)”. For the same molecule, the mutagenic call (End Point: In vivo chromosomal aberrations, Test System: Bone marrow cells, Species: Mouse, Strain/Sex: Swiss/Male, Route: Intraperitoneal) was “active; positive (chromatid breaks and acentric fragments)”, the mutagenic call (End Point: In vivo chromosomal aberrations, Test System: Spermatocytes, Species: Mouse, Strain/Sex: Swiss/Male, Route: Intraperitoneal) was “active; positive (at highest dose only)” and the mutagenic call (Test System: E.COLI, Strain/Indicator: WP2UVRA/PKM101, Metabolic Activation: NONE, Method: PREINCUBATION) was “inactive; negative”. The mutagenic call (Test System: E.COLI, Strain/Indicator: WP2UVRA/PKM101, Metabolic Activation: RAT LIVER S-9, PHENOBARBITAL AND 5,6-BENZOFLAVONE, Method: PREINCUBATION) was “inactive; negative”.

c1cc2c3c(cccc3c1)-c1c-2c2ccccc2c2ccccc12 was tested, and the mutagenic call (Test System: HUMAN H1A1V2 CELLS, Strain/Indicator: TK LOCUS, Metabolic Activation: NONE, Method: SUSPENSION/PLATE) was “inactive; negative”.

With CCCCCCCCCCC1CO1 (stereo unspecified) the mutagenic call (Test System: AMES SALMONELLA TYPHIMURIUM, Strain/Indicator: TA97, Metabolic Activation: HAMSTER, LIVER, S-9, AROCLOR 1254 (30%), Method: PREINCUBATION) was “inactive; negative”, the mutagenic call (Test System: AMES SALMONELLA TYPHIMURIUM, Strain/Indicator: TA97, Metabolic Activation: NONE, Method: PREINCUBATION) was “inactive; negative” and the mutagenic call (Test System: AMES SALMONELLA TYPHIMURIUM, Strain/Indicator: TA97, Metabolic Activation: RAT, LIVER, S-9, AROCLOR 1254 (10% & 30%), Method: PREINCUBATION) was “inactive; negative”. The mutagenic call (Test System: AMES SALMONELLA TYPHIMURIUM, Strain/Indicator: TA98, Metabolic Activation: HAMSTER, LIVER, S-9, AROCLOR 1254 (10% & 30%), Method: PREINCUBATION) was “inactive; negative”, the mutagenic call [5] was “inactive; negative” and the mutagenic call (Test System: AMES SALMONELLA TYPHIMURIUM, Strain/Indicator: TA98, Metabolic Activation: RAT, LIVER, S-9, AROCLOR 1254 (10% & 30%), Method: PREINCUBATION) was “inactive; negative”. The mutagenic call (Test System: AMES SALMONELLA TYPHIMURIUM, Strain/Indicator: TA100, Metabolic Activation: HAMSTER, LIVER, S-9, AROCLOR 1254 (10% & 30%), Method: PREINCUBATION) was “inactive; negative”, the mutagenic call [4] was “inactive; negative” and the mutagenic call (Test System: AMES SALMONELLA TYPHIMURIUM, Strain/Indicator: TA100, Metabolic Activation: RAT, LIVER, S-9, AROCLOR 1254 (10% & 30%), Method: PREINCUBATION) was “inactive; negative”. For the same molecule, the mutagenic call (Test System: AMES SALMONELLA TYPHIMURIUM, Strain/Indicator: TA1535, Metabolic Activation: HAMSTER, LIVER, S-9, AROCLOR 1254 (10% & 30%), Method: PREINCUBATION) was “inactive; negative”, the mutagenic call [6] was “inactive; negative” and the mutagenic call (Test System: AMES SALMONELLA TYPHIMURIUM, Strain/Indicator: TA1535, Metabolic Activation: RAT, LIVER, S-9, AROCLOR 1254 (10% & 30%), Method: PREINCUBATION) was “inactive; negative”. For the same molecule, the mutagenic call (Test System: AMES SALMONELLA TYPHIMURIUM, Strain/Indicator: TA1537, Metabolic Activation: HAMSTER, LIVER, S-9, AROCLOR 1254 (10% & 30%), Method: PREINCUBATION) was “inactive; negative”, the mutagenic call [7] was “inactive; negative” and the mutagenic call (Test System: AMES SALMONELLA TYPHIMURIUM, Strain/Indicator: TA1537, Metabolic Activation: RAT, LIVER, S-9, AROCLOR 1254 (10% & 30%), Method: PREINCUBATION) was “inactive; negative”. For the same molecule, the mutagenic call (Test System: UDS MOUSE EPIDERMIS IN VIVO/IN VITRO, Strain/Indicator: HOS:HR-1/THYMIDINE INCORPORATION, Metabolic Activation: NONE, Method: LIQUID SCINTILLATION) was “inactive; negative”.

With N[C@@H](CS/C=C/CCl)C(=O)O the mutagenic call [5] was “inactive; negative”, the mutagenic call [4] was “inactive; negative” and the mutagenic call (Test System: AMES SALMONELLA TYPHIMURIUM, Strain/Indicator: TA2638, Metabolic Activation: NONE, Method: PREINCUBATION) was “inactive; negative”.

In the case of Nc1cccc2cccc(S(=O)(=O)O)c12, the mutagenic call [5] is reported as “inactive; negative”, the mutagenic call (Test System: AMES SALMONELLA TYPHIMURIUM, Strain/Indicator: TA98, Metabolic Activation: RAT LIVER S-9, PHENOBARBITAL AND BETA-NAPHTHOFLAVONE, Method: PREINCUBATION) is reported as “active; positive” and the mutagenic call [4] is reported as “inactive; negative”. The mutagenic call (Test System: AMES SALMONELLA TYPHIMURIUM, Strain/Indicator: TA100, Metabolic Activation: RAT LIVER S-9, PHENOBARBITAL AND BETA-NAPHTHOFLAVONE, Method: PREINCUBATION) was “inactive; negative”, the mutagenic call [6] was “inactive; negative” and the mutagenic call (Test System: AMES SALMONELLA TYPHIMURIUM, Strain/Indicator: TA1535, Metabolic Activation: RAT LIVER S-9, PHENOBARBITAL AND BETA-NAPHTHOFLAVONE, Method: PREINCUBATION) was “inactive; negative”. For the same molecule, the mutagenic call [7] was “inactive; negative”, the mutagenic call (Test System: AMES SALMONELLA TYPHIMURIUM, Strain/Indicator: TA1537, Metabolic Activation: RAT LIVER S-9, PHENOBARBITAL AND BETA-NAPHTHOFLAVONE, Method: PREINCUBATION) was “active; positive” and the mutagenic call (Test System: AMES SALMONELLA TYPHIMURIUM, Strain/Indicator: TA1538, Metabolic Activation: NONE, Method: PREINCUBATION) was “inactive; negative”. The mutagenic call (Test System: AMES SALMONELLA TYPHIMURIUM, Strain/Indicator: TA1538, Metabolic Activation: RAT LIVER S-9, PHENOBARBITAL AND BETA-NAPHTHOFLAVONE, Method: PREINCUBATION) was “active; positive”, the mutagenic call (Test System: E.COLI, Strain/Indicator: WP2UVRA, Metabolic Activation: NONE, Method: PREINCUBATION) was “inactive; negative” and the mutagenic call (Test System: E.COLI, Strain/Indicator: WP2UVRA, Metabolic Activation: RAT LIVER S-9, PHENOBARBITAL AND BETA-NAPHTHOFLAVONE, Method: PREINCUBATION) was “inactive; negative”.

With CCCCCCC[N+](=O)[O-] the mutagenic call (Test System: UDS RAT HEPATOCYTES, Strain/Indicator: THY INCORP, Metabolic Activation: NONE) was “inactive; negative”.

With O=C(O)c1ccc([N+](=O)[O-])cc1[N+](=O)[O-] the mutagenic call (End Point: In vitro chromosomal aberrations, Test System: V79 Chinese hamster fibroblasts, Metabolic Activation: None) was “active; positive (structural changes)”, the mutagenic call (End Point: In vitro micronucleus, Test System: HepG2 human hepatoma cells, Metabolic Activation: None) was “active; positive” and the mutagenic call (Test System: AMES SALMONELLA TYPHIMURIUM, Strain/Indicator: TA98, Metabolic Activation: RAT, LIVER, S-9, AROCLOR, Method: PREINCUBATION) was “active; positive”. For the same molecule, the mutagenic call (Test System: AMES SALMONELLA TYPHIMURIUM, Strain/Indicator: TA98, Metabolic Activation: RAT, LIVER, S-9, KANECHLOR 500, Method: PREINCUBATION) was “inactive; negative”, the mutagenic call (Test System: AMES SALMONELLA TYPHIMURIUM, Strain/Indicator: TA100, Metabolic Activation: RAT, LIVER, S-9, KANECHLOR 500, Method: PREINCUBATION) was “inactive; negative” and the mutagenic call (Test System: Ames Salmonella typhimurium, Strain/Indicator: TA98, Metabolic Activation: None, Method: Standard plate) was “active; positive”. For the same molecule, the mutagenic call (Test System: Ames Salmonella typhimurium, Strain/Indicator: TA98, Metabolic Activation: Rat, Liver, S-9, Method: Standard plate) was “active; positive”, the mutagenic call (Test System: Ames Salmonella typhimurium, Strain/Indicator: TA98NR, Metabolic Activation: None, Method: Standard plate) was “active; positive, ta98nr is the nitroreductase-deficient derivative of ta98” and the mutagenic call (Test System: Ames Salmonella typhimurium, Strain/Indicator: TA100, Metabolic Activation: None, Method: Standard plate) was “inactive; negative”. The mutagenic call (Test System: Ames Salmonella typhimurium, Strain/Indicator: TA100, Metabolic Activation: Rat, Liver, S-9, Method: Standard plate) was “inactive; negative”.

With O=C(c1ccc(F)cc1)[C@@H]1O[C@@H]1c1ccccc1 the mutagenic call [1] was “inactive; negative”, the mutagenic call [2] was “inactive; negative” and the mutagenic call [3] was “active; positive”. For the same molecule, the mutagenic call (Test System: AMES SALMONELLA TYPHIMURIUM, Strain/Indicator: TA100, Metabolic Activation: RAT, LIVER, S-9, AROCLOR 1254, Method: STANDARD PLATE) was “inactive; negative”.

With Cc1ccccc1C1=C(C(=O)O)O1 the mutagenic call [3] was “inactive; negative”.
